From US20130267551A1, “SUBSTITUTED HYDROGENATED THIENO-PYRROLO[3,2-C]PYRIDINE, LIGANDS, A PHARMACEUTICAL COMPOSITION AND A METHOD FOR USING THE ABOVE” (ALLA CHEM, LLC, priority 2010, published 2013)
Structures can show the parent of a compound that is named as a salt.

Legend:
Adrenergic α1A = assay: competitive radioligand binding, Adrenergic α1A; conditions: compound concentration of 1 μM
Protocol: (§1) Profiles of pharmacological activity of thieno-pyrrolo[3,2-c]pyridines of the general formula 1. Biological activity test of compounds of the general formula 1 was carried out in the setting of competitive radioligand binding [I. Okun, S. Tkachenko, A. Khvat, et al., Current Alzheimer Research, 7(2), 97-112 (2010)], using a wide range of therapeutic targets including G-protein coupled receptors (GPCR), ion channels and neuromediator transporters. The tested activity was determined by quantitative measurement of radio-labelled ligand displacement by tested compounds of the general formula 1 at their concentration of 1 μM.

Adrenergic α1B = assay: competitive radioligand binding, Adrenergic α1B; conditions: compound concentration of 1 μM
Protocol: as §1

Adrenergic α1D = biological target: T1, Adrenergic α1D (Homo sapiens, UniProt P25100); assay: competitive radioligand binding, Adrenergic α1D; conditions: compound concentration of 1 μM
T1 sequence (P25100 1-572): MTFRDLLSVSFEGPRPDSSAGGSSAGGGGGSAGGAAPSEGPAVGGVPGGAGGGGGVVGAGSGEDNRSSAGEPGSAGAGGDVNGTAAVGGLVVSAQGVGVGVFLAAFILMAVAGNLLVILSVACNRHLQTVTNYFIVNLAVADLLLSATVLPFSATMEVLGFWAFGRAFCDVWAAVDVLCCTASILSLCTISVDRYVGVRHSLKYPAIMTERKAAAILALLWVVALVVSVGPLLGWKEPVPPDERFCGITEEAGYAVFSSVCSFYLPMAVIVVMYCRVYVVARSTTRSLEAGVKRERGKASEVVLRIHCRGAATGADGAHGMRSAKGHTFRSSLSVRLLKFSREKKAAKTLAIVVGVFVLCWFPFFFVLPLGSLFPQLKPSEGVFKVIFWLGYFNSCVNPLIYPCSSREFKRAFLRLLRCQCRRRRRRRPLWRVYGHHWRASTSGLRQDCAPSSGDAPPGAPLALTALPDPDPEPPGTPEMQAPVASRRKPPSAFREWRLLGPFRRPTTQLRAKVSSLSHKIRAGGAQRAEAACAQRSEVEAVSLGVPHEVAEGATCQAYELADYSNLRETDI
Protocol: as §1

Adrenergic α2A = biological target: T2, Adrenergic α2A (Homo sapiens, UniProt P08913); assay: competitive radioligand binding, Adrenergic α2A; conditions: compound concentration of 1 μM
T2 sequence (P08913 1-465): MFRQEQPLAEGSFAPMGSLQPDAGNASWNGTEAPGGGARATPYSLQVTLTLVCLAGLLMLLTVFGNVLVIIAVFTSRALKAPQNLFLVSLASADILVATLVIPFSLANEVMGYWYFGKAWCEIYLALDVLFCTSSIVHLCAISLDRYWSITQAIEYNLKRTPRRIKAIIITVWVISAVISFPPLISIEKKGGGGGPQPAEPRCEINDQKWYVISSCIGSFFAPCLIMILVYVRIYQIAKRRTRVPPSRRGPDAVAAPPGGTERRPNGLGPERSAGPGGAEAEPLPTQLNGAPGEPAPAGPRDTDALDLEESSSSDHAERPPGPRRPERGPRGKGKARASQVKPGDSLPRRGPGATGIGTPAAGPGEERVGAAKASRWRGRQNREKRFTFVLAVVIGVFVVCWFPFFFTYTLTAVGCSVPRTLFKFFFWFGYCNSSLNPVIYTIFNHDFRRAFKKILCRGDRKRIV
Protocol: as §1

Dopaminergic D1 = Dopaminergic D1 (Homo sapiens, UniProt P21728); assay: competitive radioligand binding, Dopaminergic D1; conditions: compound concentration of 1 μM
Sequence of Dopaminergic D1 (P21728 whole entry): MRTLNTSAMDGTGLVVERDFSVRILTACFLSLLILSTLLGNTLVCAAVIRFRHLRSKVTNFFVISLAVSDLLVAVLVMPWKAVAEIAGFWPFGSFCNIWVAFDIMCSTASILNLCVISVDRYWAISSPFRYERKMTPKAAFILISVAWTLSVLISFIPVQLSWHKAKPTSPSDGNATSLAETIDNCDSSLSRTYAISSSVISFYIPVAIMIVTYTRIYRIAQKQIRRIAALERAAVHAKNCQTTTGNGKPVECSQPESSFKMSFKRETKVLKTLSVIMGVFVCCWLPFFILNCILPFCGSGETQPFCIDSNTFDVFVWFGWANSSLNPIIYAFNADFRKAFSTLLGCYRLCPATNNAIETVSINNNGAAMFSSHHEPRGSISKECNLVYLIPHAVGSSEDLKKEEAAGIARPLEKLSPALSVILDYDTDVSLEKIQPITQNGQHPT
Protocol: as §1

Dopaminergic D2L = Dopaminergic D2L (Homo sapiens, UniProt P14416); assay: competitive radioligand binding, Dopaminergic D2L; conditions: compound concentration of 1 μM
Sequence of Dopaminergic D2L (P14416 whole entry): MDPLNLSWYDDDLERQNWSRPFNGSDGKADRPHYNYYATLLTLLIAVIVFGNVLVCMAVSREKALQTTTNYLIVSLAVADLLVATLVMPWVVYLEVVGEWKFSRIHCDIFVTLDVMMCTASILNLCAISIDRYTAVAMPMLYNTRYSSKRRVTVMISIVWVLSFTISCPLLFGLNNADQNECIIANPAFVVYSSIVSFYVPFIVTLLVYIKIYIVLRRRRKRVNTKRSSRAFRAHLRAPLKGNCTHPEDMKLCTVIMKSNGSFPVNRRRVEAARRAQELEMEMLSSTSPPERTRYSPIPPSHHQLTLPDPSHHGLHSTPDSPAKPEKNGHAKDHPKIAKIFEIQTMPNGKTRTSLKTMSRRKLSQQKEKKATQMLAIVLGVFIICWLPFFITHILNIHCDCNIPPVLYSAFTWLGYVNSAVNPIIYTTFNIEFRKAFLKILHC
Protocol: as §1

Dopaminergic D2S = Dopaminergic D2S (Homo sapiens, UniProt P14416); assay: competitive radioligand binding, Dopaminergic D2S; conditions: compound concentration of 1 μM
Sequence of Dopaminergic D2S (P14416 1-414 isoform P14416-2): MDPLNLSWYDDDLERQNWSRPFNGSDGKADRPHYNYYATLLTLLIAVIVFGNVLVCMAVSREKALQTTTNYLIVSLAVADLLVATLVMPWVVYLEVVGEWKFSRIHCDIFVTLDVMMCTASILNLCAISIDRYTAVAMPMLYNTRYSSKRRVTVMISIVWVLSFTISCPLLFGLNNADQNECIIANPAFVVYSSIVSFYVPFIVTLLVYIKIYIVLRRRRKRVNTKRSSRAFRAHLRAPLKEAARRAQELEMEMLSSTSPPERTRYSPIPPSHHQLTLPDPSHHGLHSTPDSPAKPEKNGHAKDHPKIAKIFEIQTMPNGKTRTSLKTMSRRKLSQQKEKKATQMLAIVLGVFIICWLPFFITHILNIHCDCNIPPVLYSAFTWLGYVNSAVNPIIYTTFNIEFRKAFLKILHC
Protocol: as §1

Dopaminergic D3 = Dopaminergic D3 (Homo sapiens, UniProt P35462); assay: competitive radioligand binding, Dopaminergic D3; conditions: compound concentration of 1 μM
Sequence of Dopaminergic D3 (P35462 whole entry): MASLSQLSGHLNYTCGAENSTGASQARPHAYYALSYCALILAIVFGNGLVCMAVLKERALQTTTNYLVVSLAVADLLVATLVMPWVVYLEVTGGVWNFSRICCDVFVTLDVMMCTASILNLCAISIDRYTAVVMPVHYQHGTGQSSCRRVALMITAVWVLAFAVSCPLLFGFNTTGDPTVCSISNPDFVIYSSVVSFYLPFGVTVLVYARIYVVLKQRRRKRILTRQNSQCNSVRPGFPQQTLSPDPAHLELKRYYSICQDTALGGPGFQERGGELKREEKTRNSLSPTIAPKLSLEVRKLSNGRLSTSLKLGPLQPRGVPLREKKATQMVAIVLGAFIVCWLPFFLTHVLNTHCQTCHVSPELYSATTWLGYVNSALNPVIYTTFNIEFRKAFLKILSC
Protocol: as §1

Dopaminergic D4.2 = biological target: T3, Dopaminergic D4.2 (Homo sapiens, UniProt P21917, DEL265-296); assay: competitive radioligand binding, Dopaminergic D4.2; conditions: compound concentration of 1 μM
T3 sequence (P21917 with tags, fused parts or gaps DEL265-296): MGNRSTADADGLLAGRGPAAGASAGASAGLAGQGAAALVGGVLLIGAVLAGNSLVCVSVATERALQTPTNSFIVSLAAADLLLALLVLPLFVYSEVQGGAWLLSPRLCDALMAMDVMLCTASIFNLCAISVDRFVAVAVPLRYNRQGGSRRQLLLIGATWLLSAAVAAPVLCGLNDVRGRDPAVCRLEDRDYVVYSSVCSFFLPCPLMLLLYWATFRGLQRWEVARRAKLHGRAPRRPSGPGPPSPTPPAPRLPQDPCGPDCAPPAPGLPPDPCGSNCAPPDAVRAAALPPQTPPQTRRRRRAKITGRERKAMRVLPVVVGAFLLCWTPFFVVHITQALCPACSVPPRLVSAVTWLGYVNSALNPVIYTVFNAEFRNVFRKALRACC
Protocol: as §1

Histaminergic H1 = Histaminergic H1 (Homo sapiens, UniProt P35367); assay: competitive radioligand binding, Histaminergic H1; conditions: compound concentration of 1 μM
Sequence of Histaminergic H1 (P35367 whole entry): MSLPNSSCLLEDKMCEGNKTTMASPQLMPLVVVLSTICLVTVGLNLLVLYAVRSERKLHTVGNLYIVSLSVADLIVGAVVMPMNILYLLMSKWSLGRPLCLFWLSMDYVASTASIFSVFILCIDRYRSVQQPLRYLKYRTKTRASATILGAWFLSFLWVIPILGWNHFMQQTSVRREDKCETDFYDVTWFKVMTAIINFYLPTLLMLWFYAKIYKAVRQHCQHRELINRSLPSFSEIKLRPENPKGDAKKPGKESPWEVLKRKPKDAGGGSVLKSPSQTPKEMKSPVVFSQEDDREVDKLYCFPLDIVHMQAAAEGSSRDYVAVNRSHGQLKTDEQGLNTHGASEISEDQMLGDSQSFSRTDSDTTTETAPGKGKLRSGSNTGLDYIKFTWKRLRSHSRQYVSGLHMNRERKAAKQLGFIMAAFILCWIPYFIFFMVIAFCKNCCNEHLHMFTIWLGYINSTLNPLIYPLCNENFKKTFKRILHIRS
Protocol: as §1

Histaminergic H2 = Histaminergic H2 (Homo sapiens, UniProt P25021); assay: competitive radioligand binding, Histaminergic H2; conditions: compound concentration of 1 μM
Sequence of Histaminergic H2 (P25021 whole entry): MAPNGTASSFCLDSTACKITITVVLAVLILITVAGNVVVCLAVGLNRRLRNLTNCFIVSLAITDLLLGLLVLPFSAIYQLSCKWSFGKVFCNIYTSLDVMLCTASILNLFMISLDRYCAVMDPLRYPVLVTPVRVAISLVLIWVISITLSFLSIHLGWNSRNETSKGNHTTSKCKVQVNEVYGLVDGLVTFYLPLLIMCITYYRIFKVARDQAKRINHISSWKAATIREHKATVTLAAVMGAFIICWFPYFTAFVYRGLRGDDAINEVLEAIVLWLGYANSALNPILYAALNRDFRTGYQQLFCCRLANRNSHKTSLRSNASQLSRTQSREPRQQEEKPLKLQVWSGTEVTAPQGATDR
Protocol: as §1

Histaminergic H3 = Histaminergic H3 (Homo sapiens, UniProt Q9Y5N1); assay: competitive radioligand binding, Histaminergic H3; conditions: compound concentration of 1 μM; in % (unit assumed)
Sequence of Histaminergic H3 (Q9Y5N1 whole entry): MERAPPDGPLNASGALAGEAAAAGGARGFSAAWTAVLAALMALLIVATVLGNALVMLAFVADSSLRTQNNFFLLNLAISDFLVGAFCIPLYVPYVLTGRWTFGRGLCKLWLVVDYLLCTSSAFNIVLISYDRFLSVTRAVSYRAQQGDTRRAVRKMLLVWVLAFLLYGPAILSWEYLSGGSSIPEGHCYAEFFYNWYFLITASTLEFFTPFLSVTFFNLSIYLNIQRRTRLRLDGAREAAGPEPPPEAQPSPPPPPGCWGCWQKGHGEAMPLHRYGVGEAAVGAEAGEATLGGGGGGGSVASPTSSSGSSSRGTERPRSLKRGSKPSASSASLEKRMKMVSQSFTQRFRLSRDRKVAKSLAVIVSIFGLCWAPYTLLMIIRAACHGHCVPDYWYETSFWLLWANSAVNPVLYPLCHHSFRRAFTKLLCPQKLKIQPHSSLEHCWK
Protocol: as §1

Serotoninergic 5-HT1A = biological target: T4, Serotoninergic 5-HT1A (Homo sapiens, UniProt P08908); assay: competitive radioligand binding, Serotoninergic 5-HT1A; conditions: compound concentration of 1 μM
T4 sequence (P08908 1-422): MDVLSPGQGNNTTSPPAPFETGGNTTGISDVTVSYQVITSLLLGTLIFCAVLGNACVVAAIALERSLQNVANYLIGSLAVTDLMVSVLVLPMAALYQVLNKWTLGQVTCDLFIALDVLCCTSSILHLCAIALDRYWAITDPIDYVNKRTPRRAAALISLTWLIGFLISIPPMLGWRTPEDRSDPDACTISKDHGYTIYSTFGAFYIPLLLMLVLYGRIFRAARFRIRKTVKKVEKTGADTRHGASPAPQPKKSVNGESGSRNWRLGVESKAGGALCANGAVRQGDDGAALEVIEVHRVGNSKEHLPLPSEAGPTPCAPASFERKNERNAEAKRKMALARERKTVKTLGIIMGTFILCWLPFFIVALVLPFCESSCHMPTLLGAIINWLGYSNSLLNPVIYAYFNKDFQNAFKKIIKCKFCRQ
Protocol: as §1

Serotoninergic 5-HT1B = assay: competitive radioligand binding, Serotoninergic 5-HT1B; conditions: compound concentration of 1 μM
Protocol: as §1

Serotoninergic 5-HT2A = Serotoninergic 5-HT2A (Homo sapiens, UniProt P28223); assay: competitive radioligand binding, Serotoninergic 5-HT2A; conditions: compound concentration of 1 μM
Sequence of Serotoninergic 5-HT2A (P28223 whole entry): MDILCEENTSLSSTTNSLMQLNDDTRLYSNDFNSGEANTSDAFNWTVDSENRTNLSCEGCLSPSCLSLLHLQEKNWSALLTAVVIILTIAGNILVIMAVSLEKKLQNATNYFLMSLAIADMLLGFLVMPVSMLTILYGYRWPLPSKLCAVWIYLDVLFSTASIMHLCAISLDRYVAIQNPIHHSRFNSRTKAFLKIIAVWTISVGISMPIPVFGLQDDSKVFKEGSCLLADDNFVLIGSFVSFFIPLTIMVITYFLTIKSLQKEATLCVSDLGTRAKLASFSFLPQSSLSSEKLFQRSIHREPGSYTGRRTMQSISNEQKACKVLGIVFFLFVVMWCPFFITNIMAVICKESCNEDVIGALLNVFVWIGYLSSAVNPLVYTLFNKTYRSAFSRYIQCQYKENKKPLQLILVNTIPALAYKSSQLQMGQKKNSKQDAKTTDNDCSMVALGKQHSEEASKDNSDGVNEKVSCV
Protocol: as §1

Serotoninergic 5-HT2B = Serotoninergic 5-HT2B (Homo sapiens, UniProt P41595); assay: competitive radioligand binding, Serotoninergic 5-HT2B; conditions: compound concentration of 1 μM
Sequence of Serotoninergic 5-HT2B (P41595 whole entry): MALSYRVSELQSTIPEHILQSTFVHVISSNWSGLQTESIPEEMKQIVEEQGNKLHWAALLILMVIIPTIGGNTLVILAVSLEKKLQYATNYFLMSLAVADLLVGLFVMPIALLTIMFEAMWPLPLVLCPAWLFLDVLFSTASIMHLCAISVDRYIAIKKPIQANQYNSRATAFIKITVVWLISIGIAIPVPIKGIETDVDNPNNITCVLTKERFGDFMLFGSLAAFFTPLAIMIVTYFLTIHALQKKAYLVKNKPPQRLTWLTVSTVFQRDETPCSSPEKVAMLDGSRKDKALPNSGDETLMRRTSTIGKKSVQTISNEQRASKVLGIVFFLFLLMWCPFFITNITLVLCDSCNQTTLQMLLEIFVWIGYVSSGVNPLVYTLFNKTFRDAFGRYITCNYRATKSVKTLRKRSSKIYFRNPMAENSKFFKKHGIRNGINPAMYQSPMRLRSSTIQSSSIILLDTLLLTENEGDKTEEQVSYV
Protocol: as §1

Serotoninergic 5-HT2C = biological target: T5, Serotoninergic 5-HT2C (Homo sapiens, UniProt P28335); assay: competitive radioligand binding, Serotoninergic 5-HT2C; conditions: compound concentration of 1 μM
T5 sequence (P28335 33-458): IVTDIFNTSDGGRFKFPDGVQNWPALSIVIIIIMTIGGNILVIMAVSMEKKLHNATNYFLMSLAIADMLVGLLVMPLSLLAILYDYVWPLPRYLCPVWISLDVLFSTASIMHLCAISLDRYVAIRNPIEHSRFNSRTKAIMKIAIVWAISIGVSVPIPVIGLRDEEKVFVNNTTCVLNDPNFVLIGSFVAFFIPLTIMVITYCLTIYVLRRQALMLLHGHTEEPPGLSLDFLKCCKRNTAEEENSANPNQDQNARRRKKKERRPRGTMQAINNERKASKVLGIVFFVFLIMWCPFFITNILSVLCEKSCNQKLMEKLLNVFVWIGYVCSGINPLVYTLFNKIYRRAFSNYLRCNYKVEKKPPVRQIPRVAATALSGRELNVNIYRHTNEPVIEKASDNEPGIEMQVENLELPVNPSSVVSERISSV
Protocol: as §1

Serotoninergic 5-HT6 = Serotoninergic 5-HT6 (Homo sapiens, UniProt P50406); assay: competitive radioligand binding, Serotoninergic 5-HT6; conditions: compound concentration of 1 μM
Sequence of Serotoninergic 5-HT6 (P50406 whole entry): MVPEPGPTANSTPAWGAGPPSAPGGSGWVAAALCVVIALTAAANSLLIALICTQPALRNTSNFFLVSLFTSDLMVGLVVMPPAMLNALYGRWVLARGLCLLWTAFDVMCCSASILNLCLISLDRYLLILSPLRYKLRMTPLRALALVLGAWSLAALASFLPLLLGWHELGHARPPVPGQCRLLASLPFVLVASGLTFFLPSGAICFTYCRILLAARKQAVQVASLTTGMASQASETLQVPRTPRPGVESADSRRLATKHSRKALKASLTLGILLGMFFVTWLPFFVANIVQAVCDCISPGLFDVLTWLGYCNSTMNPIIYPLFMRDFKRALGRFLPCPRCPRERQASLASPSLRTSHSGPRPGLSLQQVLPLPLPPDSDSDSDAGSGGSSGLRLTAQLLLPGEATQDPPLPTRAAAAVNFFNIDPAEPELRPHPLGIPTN
Protocol: as §1

Serotoninergic 5-HT7 = Serotoninergic 5-HT7 (Homo sapiens, UniProt P34969); assay: competitive radioligand binding, Serotoninergic 5-HT7; conditions: compound concentration of 1 μM
Sequence of Serotoninergic 5-HT7 (P34969 whole entry): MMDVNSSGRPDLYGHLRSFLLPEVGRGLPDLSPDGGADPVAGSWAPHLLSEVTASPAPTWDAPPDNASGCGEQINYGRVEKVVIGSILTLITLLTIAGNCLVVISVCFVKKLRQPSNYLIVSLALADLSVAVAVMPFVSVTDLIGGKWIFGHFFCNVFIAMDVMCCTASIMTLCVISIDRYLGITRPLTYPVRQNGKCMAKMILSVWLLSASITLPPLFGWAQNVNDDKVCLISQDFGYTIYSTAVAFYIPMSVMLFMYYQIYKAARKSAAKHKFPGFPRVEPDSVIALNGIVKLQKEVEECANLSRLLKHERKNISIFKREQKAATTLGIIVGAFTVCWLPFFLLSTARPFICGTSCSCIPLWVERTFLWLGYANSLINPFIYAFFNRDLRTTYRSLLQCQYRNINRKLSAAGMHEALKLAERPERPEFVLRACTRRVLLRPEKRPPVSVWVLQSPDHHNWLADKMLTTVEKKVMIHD
Protocol: as §1

[1] = test system: Therapeutic targets (Adrenergic, Dopaminergic, Histaminergic, Serotoninergic); assay: Profiles of pharmacological activity in competitive radioligand binding (whole panel); conditions: 1 μM, grades not defined
Protocol: as §1

Row | Compound | radio-labelled ligand displacement, Adrenergic α1A (Adrenergic α1A) | radio-labelled ligand displacement, Adrenergic α1B (Adrenergic α1B) | radio-labelled ligand displacement, Adrenergic α1D (Adrenergic α1D) | radio-labelled ligand displacement, Adrenergic α2A (Adrenergic α2A) | radio-labelled ligand displacement, Dopaminergic D1 (Dopaminergic D1) | radio-labelled ligand displacement, Dopaminergic D2L (Dopaminergic D2L) | radio-labelled ligand displacement, Dopaminergic D2S (Dopaminergic D2S) | radio-labelled ligand displacement, Dopaminergic D3 (Dopaminergic D3) | radio-labelled ligand displacement, Dopaminergic D4.2 (Dopaminergic D4.2) | radio-labelled ligand displacement, Histaminergic H1 (Histaminergic H1) | radio-labelled ligand displacement, Histaminergic H2 (Histaminergic H2) | radio-labelled ligand displacement, Histaminergic H3 (Histaminergic H3) | radio-labelled ligand displacement, Serotoninergic 5-HT1A (Serotoninergic 5-HT1A) | radio-labelled ligand displacement, Serotoninergic 5-HT1B (Serotoninergic 5-HT1B) | radio-labelled ligand displacement, Serotoninergic 5-HT2A (Serotoninergic 5-HT2A) | radio-labelled ligand displacement, Serotoninergic 5-HT2B (Serotoninergic 5-HT2B) | radio-labelled ligand displacement, Serotoninergic 5-HT2C (Serotoninergic 5-HT2C) | radio-labelled ligand displacement, Serotoninergic 5-HT6 (Serotoninergic 5-HT6) | radio-labelled ligand displacement, Serotoninergic 5-HT7 (Serotoninergic 5-HT7) | grade of the activity profile (poor / satisfactory / good) [1]
1 | Cc1cc2c3c(n(CCc4ccc(Cl)cc4)c2s1)C(C)CN(C)C3 (stereo not shown) [3.6(4)•HCl, 2,5,7-trimethyl-8-(4-chlorophenethyl)-4,5,6,7-tetrahydro-5H-thieno[3′,2′:4,5]pyrrolo[3,2-c]pyridine] | 89% | 91% | 89% | 93% | 56% | 45% | 72% | 63% | 54% | 95% | 63% | 8 | 29% | 41% | 97% | 78% | 96% | 99% | 99% | good
2 | Cc1cc2c3c(n(CC(O)c4ccccc4)c2s1)CCN(C)C3.Cl (stereo not shown) [3.7(1)•HCl, 2-(2,5-Dimethyl-4,5,6,7-tetrahydro-5H-thieno[3′,2′:4,5]pyrrolo[3,2-c]pyridin-8-yl)-1-phenylethanol hydrochloride] | 79% | 89% | 86% | 91% | 47% | 35% | 29% | 23% | 33% | 89% | 57% | −3 | 18% | 30% | 97% | 63% | 94% | 99% | 96% | 
3 | Cc1ccc(C=CCn2c3c(c4cc(C)sc42)CN(C)CC3)cc1 [3.11(2)•HCl, 2,5-dimethyl-8-[3-(p-tolyl)allyl]-4,5,6,7-tetrahydro-5H-thieno[3′,2′:4,5]pyrrolo[3,2-c]pyridine] | 55% | 60% | 42% | 53% | 10% | 50% | 61% | 49% | 13% | 81% | 50% | 7 | 21% | 39% | 93% | 89% | 93% | 95% | 85% | satisfactory
4 | Cc1csc2c1c1c(n2CCCc2ccccc2)CCN(C)C1 [3.12(1)•HCl] | 98% | 99% | 92% | 101% | 57% | 82% | 89% | 75% | 73% | 98% | 99% | 11 | 43% | 54% | 99% | 91% | 97% | 101% | 98% | good
